As usually defined, the IC50 is the point on the concentration scale where inhibition reaches its midpoint.

Chain of CSF-1R (P07333 20-972): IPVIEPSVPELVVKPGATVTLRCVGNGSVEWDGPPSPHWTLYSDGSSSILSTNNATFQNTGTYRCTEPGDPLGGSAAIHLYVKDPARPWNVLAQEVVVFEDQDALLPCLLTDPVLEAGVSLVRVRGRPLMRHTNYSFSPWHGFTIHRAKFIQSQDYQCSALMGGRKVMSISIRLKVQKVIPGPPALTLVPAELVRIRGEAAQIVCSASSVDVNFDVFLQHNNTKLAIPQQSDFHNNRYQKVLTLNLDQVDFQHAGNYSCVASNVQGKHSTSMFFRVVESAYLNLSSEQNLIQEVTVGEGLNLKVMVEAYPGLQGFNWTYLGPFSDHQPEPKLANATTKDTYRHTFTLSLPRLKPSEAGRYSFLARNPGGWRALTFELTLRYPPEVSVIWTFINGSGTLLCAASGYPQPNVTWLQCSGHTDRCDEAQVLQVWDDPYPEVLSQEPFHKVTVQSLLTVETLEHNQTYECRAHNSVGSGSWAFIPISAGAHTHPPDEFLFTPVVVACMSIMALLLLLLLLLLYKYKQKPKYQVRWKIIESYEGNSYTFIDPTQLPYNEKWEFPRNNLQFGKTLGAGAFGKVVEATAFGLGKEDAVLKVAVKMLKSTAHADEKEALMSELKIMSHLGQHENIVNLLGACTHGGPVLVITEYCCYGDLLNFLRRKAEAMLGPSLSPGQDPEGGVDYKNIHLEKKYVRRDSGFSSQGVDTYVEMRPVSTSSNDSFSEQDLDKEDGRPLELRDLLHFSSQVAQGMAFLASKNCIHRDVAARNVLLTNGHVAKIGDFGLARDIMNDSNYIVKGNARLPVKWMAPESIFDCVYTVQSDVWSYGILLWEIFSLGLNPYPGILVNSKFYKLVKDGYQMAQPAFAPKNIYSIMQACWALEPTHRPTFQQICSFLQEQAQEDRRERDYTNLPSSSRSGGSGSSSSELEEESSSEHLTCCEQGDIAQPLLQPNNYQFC

For the assay, the target named is CSF-1R (Homo sapiens, UniProt P07333). In words: Peptide (non-phosphorylated) assay, fluorescence polarization competition immunoassay. It counts as biochemical. As to conditions: 0.7 nM CSF-1R, 308 μM SYEGNSYTFIDPTQ peptide, 1 mM ATP, 80 min; mean of at least three determinations; read-out: c-fms Peptide IC50. The protocol:
The kinase reaction was initiated by adding 1 μL of 10 mM ATP in assay buffer. […] Positive and negative control wells were included on each plate, where 4% DMSO in assay buffer was substituted for the compound; in addition, positive control wells received 1.2 μL of 50 mM EDTA before the start of the reaction.
The plates were covered and incubated at room temperature for 80 min. Reactions were stopped by addition of 1.2 μL of 50 mM EDTA. Each well then received 10 μL of a 1:1:3 mixture of 10× anti-phosphotyrosine antibody, 10×PTK green tracer, and FP dilution buffer, respectively (Cat. # P2837, Invitrogen, Carlsbad, Calif.). The plates were covered, incubated for 30 min at room temperature, and the fluorescence polarization was read on an Analyst plate reader (Molecular Devices).
Consider `CONC(=O)c1cn(-c2ccc3c(c2)CCC3)c2nc(Nc3ccc(CCN4CCN(C(=O)OC)CC4)cc3)ncc2c1=O` [Cpd 150, 4-{2-[4-(8-indan-5-yl-6-methoxycarbamoyl-5-oxo-5,8-dihydro-pyrido[2,3-d]pyrimidin-2-ylamino)-phenyl]-ethyl}-piperazine-1-carboxylic acid methyl ester], for which the IC50 was 0.75 nM.

For the compound `CONC(=O)c1cn(-c2ccc3c(c2)CCC3)c2nc(Nc3ccc(C4CCN(S(N)(=O)=O)CC4)cc3)ncc2c1=O` [Cpd 178, 8-indan-5-yl-5-oxo-2-[4-(1-sulfamoyl-piperidin-4-yl)-phenylamino]-5,8-dihydro-pyrido[2,3-d]pyrimidine-6-carboxylic acid methoxy-amide], the IC50 was 2.6 nM.

As for `CONC(=O)c1cn(-c2ccc3c(c2)CCC3)c2nc(Nc3ccc(C4CCN(CCC(=O)O)CC4)cc3)ncc2c1=O` [Cpd 84, 3-{4-[4-(8-indan-5-yl-6-methoxycarbamoyl-5-oxo-5,8-dihydro-pyrido[2,3-d]pyrimidin-2-ylamino)-phenyl]-piperidin-1-yl}-propionic acid], the IC50 was 2 nM.

As for `CONC(=O)c1cn(-c2ccc3c(c2)CCC3)c2nc(Nc3ccc(CCN4C5CCC4CC5)cc3)ncc2c1=O` [Cpd 110, 2-{4-[2-(7-aza-bicyclo[2.2.1]hept-7-yl)-ethyl]-phenylamino}-8-indan-5-yl-5-oxo-5,8-dihydro-pyrido[2,3-d]pyrimidine-6-carboxylic acid methoxy-amide], the IC50 worked out at 0.46 nM.

On to `O=C(NCCO)c1cn(-c2ccc3c(c2)CCC3)c2nc(Nc3cccc(N4CCNCC4)c3)ncc2c1=O` [Cpd 66, 8-indan-5-yl-5-oxo-2-(3-piperazin-1-yl-phenylamino)-5,8-dihydro-pyrido[2,3-d]pyrimidine-6-carboxylic acid (2-hydroxy-ethyl)-amide], for which the IC50 was 2.5 nM.

`CONC(=O)c1cn(-c2ccc3c(c2)CCC3)c2nc(Nc3ccc(C4CCN(C(C)=O)CC4)cc3)ncc2c1=O` [Cpd 69, 2-[4-(1-acetyl-piperidin-4-yl)-phenylamino]-8-indan-5-yl-5-oxo-5,8-dihydro-pyrido[2,3-d]pyrimidine-6-carboxylic acid methoxy-amide]: the IC50 worked out at 1.2 nM.

As to `CONC(=O)c1cn(-c2ccc3c(c2)CCC3)c2nc(Nc3ccc(Cc4nnn[nH]4)cc3)ncc2c1=O` [Cpd 91, 8-indan-5-yl-5-oxo-2-[4-(1H-tetrazol-5-ylmethyl)-phenylamino]-5,8-dihydro-pyrido[2,3-d]pyrimidine-6-carboxylic acid methoxy-amide], the IC50 worked out at 2 nM.

In the case of `CN(C)C(=O)Cc1ccc(Nc2ncc3c(=O)c(C(N)=O)cn(-c4ccc5c(c4)CCC5)c3n2)cc1` [Cpd 118, 2-(4-dimethylcarbamoylmethyl-phenylamino)-8-indan-5-yl-5-oxo-5,8-dihydro-pyrido[2,3-d]pyrimidine-6-carboxylic acid amide], the IC50 is 4.5 nM.

As for `CCONC(=O)c1cn(C2CCCCC2)c2nc(Nc3ccc(CCN4CCN(C)CC4)cc3)ncc2c1=O` [Cpd 19, 8-cyclohexyl-2-{4-[2-(4-methyl-piperazin-1-yl)-ethyl]-phenylamino}-5-oxo-5,8-dihydro-pyrido[2,3-d]pyrimidine-6-carboxylic acid ethoxy-amide], the IC50 turned out to be 1 nM.

On to `CCc1ccc(-n2cc(C(=O)NOC)c(=O)c3cnc(Nc4ccc([C@]5(O)CCN(C)C[C@H]5O)cc4)nc32)cc1` [Cpd 249, 2-{4-[(3R,4R)-(3,4-dihydroxy-1-methyl-piperidin-4-yl)]-phenylamino}-8-(4-ethyl-phenyl)-5-oxo-5,8-dihydro-pyrido[2,3-d]pyrimidine-6-carboxylic acid methoxy-amide], for which the IC50 was 0.55 nM.

Turning to `COCCNCCc1ccc(Nc2ncc3c(=O)c(C(=O)NOC)cn(-c4ccc5c(c4)CCC5)c3n2)cc1` [Cpd 98, 8-indan-5-yl-2-{4-[2-(2-methoxy-ethylamino)-ethyl]-phenylamino}-5-oxo-5,8-dihydro-pyrido[2,3-d]pyrimidine-6-carboxylic acid methoxy-amide], the IC50 was 1.4 nM.

These data come from patent US20080114007A1 (priority 2006, published 2008).
